Test results published in patent publication US9096632B2, “Modulator of activity of adenylate cyclase” (Public University Corporation Yokohama City University, priority 2010, dated 2015).

Test: Water solubility / hydrophilicity (stock solutions in pure water)
Type: physicochemical
Details: in words
Procedure: The thus synthesized position 2-substituted derivative (V2E), position 3-substituted derivative (V3E) and position 5-substituted derivative (V5E) were dissolved in pure water to give a concentration of 10 mM, to thereby prepare stock solutions. Vidarabine was dissolved in 100% dimethylsulfoxide to thereby prepare a 10 mM stock solution.
The newly synthesized three vidarabine derivatives (FIG. 1) were dissolved in pure water to thereby prepare 10 mM stock solutions. Since vidarabine infusion of about 2 mM is used in clinical scenes as an antiherpes therapeutic (Arasena-A for intravenous infusion; Mochida Pharmaceutical Co., Ltd.), it was possible to prepare solutions at concentrations about 5 times higher than that of the infusion. In the present study, vidarabine was dissolved in 100% DMSO to prepare a 10 mM stock solution.

Which hydrophilicity does the source give for `CN(C)CC(=O)OC1C(O)C(CO)OC1n1cnc2c(N)ncnc21` (stereo not shown) [V2E, 2-O—(N,N-Dimethylglycyl)Vidarabine] here?
The hydrophilicity was “highly hydrophilic”.
